Tested on: C. elegans nematode strain with inducible amyloid-β accumulation (CL4176)
Assay: Alzheimer's disease paralysis assay, C. elegans strain with inducible amyloid-β accumulation
Type: in vivo
Details: strain CL4176, heat shock 25° C., counted approximately every 24 h; combination effect after 71 h, persisted for 95 h
Description: These strains accumulate amyloid-β peptides that form plaques in the nematodes and lead to paralysis of the animals. In certain strains, such as strain CL4176, Aβ accumulation occurs only in response to heat shock. Thus, the Alzheimer's disease pattern is inducible in these strains. The number of paralyzed nematodes after a certain period of time following induction of Aβ accumulation indicates the extent of Alzheimer's disease. Thus, the effect of certain substances to which the nematodes are exposed on the number of paralyzed animals is a measure of the anti-Alzheimer effect of these substances.
Nematodes of strain CL4176 were synchronized at the young larval stage and allowed to grow to the L4 stage on normal growth medium for 72 h at 16° C. Then the nematodes were exposed to the test substance and the temperature was increased to 25° C. This heat shock induced Aβ accumulation, simulating the onset of Alzheimer's disease. Approximately every 24 h, the number of animals that were still mobile and those that were paralyzed as a result of Aβ accumulation was determined.

C=C(C)[C@@H]1CCC(C)=C[C@H]1c1c(O)cc(CCCCC)cc1O [CBD, cannabidiol]
number of mobile / paralyzed animals after induction of Aβ accumulation: only little effect
